# In ChEMBL document CHEMBL5236573, “Development of benzodioxine-heteroarylpiperazines as highly potent and selective α2c antagonists” (Bioorg Med Chem Lett, 2022):
# Experiments:
# [1] = biological target: T1, Alpha-2A adrenergic receptor (Homo sapiens) (UniProt P08913); assay: Antagonist activity at alpha2a-adrenoceptor (unknown origin) assessed as reduction in adrenaline-induced response by measuring equilibrium binding constant; conditions: filed as antagonist
# T1 sequence (whole entry): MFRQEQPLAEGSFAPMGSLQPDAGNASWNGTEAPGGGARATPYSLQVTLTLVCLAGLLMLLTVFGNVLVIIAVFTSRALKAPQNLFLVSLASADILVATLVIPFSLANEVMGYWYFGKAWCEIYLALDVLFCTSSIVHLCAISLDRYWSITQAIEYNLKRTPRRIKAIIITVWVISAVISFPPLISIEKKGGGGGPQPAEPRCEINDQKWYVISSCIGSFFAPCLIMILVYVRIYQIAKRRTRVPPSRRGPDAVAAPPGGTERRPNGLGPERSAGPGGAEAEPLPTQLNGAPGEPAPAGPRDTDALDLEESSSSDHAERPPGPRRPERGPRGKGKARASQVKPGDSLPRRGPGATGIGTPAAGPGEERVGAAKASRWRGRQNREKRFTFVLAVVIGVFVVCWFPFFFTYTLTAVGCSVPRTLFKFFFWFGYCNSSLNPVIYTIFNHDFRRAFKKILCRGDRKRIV
# [2] = Metabolic stability in rat hepatocytes assessed as clearance per 10^6 cells at 1 uM; format: ADME, cell-based, Hepatocyte; conditions: read-out: CLH
# [3] = Permeability across basolateral to apical side in human Caco-2 cells; format: ADME, cell-based; conditions: read-out: permeability
# [4] = biological target: T2, Alpha-2C adrenergic receptor (Homo sapiens) (UniProt P18825); assay: Antagonist activity at alpha2c-adrenoceptor (unknown origin) assessed as reduction in adrenaline-induced response by measuring equilibrium binding constant; conditions: filed as antagonist
# T2 sequence (whole entry): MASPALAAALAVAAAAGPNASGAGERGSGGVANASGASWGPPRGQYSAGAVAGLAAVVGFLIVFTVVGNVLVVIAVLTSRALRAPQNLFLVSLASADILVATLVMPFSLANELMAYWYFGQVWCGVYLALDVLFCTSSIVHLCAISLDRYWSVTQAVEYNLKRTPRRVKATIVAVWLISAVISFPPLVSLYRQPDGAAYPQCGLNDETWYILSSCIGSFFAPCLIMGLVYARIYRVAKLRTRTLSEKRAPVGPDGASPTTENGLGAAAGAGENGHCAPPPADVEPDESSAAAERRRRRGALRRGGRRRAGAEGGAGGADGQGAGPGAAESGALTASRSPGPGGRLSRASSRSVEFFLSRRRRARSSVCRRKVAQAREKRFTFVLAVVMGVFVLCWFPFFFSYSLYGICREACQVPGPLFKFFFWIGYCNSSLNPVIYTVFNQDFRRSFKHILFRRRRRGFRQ
# [5] = Solubility of the compound in pH 7.4 buffer; format: physicochemical
# [6] = Lipophilicity, logD of the compound; format: physicochemical; conditions: octanol/water
# [7] = Efflux ratio of permeability across basolateral to apical side over apical to basolateral side in human Caco-2 cells; format: ADME, cell-based
# [8] = species: Homo sapiens; assay: Selectivity index, ratio of Kb for antagonist activity at alpha2a-adrenoceptor (unknown origin) to Kb for antagonist activity at alpha2c-adrenoceptor (unknown origin)
# [9] = Metabolic stability in human hepatocytes assessed as clearance per 10^6 cells at 1 uM; format: ADME, cell-based, Hepatocyte; conditions: read-out: CLH
# [10] = Permeability across apical to basolateral side in human Caco-2 cells; format: ADME, cell-based; conditions: read-out: permeability
# [11] = Unbound Cmax in rat brain at 1 mg/kg, po by rapid equilibrium dialysis method; format: ADME, organism-based; conditions: in vivo
# [12] = Unbound Cmax in rat plasma at 1 mg/kg, po by rapid equilibrium dialysis method; format: ADME, organism-based; conditions: in vivo
# [13] = Unbound fraction in rat plasma at 1 mg/kg, po; format: ADME, organism-based
# [14] = Unbound fraction in rat brain at 1 mg/kg, po; format: ADME, organism-based
# [15] = AUC (0 to 6 hrs) in rat brain at 1 mg/kg, po; format: ADME, organism-based; set-up: dose 1 mg/kg, route po
# [16] = AUC (0 to 6 hrs) in rat plasma at 1 mg/kg, po; format: ADME, organism-based; set-up: dose 1 mg/kg, route po
# [17] = Cmax in rat brain at 1 mg/kg, po; format: ADME, organism-based; set-up: dose 1 mg/kg, route po
# [18] = Tmax in rat brain at 1 mg/kg, po; format: ADME, organism-based
# [19] = Cmax in rat plasma at 1 mg/kg, po; format: ADME, organism-based; set-up: dose 1 mg/kg, route po
# [20] = Unbound brain-to-plasma concentration ratio in rat at 1 mg/kg, po; format: ADME, organism-based; conditions: brain and plasma, read-out: K(p,uu,brain)
# [21] = Tmax in rat plasma at 1 mg/kg, po; format: ADME, organism-based
Kb [1],hepatocyte CLint at 1 µM [2],Kb [4],solubility [5],logD [6],Ratio [8],hepatocyte CLint at 1 µM [9],SMILES,other results
317 nM,5 µL/min/1e6 cells,0.04 nM,1130 µM,1.9,7940,3.6 µL/min/1e6 cells,O=C1CCCN1c1ncsc1N1CCN(C[C@H]2COc3ccccc3O2)CC1,Papp B→A [3]: 24.3 ×10⁻⁶ cm/s; efflux ratio [7]: 0.6; Papp A→B [10]: 42.4 ×10⁻⁶ cm/s
88.3 nM,54.4 µL/min/1e6 cells,0.01 nM,445 µM,2.3,8830,14.3 µL/min/1e6 cells,COc1scnc1N1CCN(C[C@H]2COc3ccccc3O2)CC1,–
449 nM,–,108 nM,–,–,4.15,–,CN1CCN(c2nsnc2N2CCN(C[C@H]3COc4ccccc4O3)CC2)C1=O,–
–,–,–,–,–,–,–,Oc1cccc([C@H]2CCCN(C[C@H]3COc4ccccc4O3)C2)c1,fCmax [11]: < 0.09 nM; fCmax [12]: < 0.06 nM; fraction unbound [13]: < 0.01; fraction unbound [14]: < 0.01; AUC(0-t) [15]: 14 ng·h/mL; AUC(0-t) [16]: 9 ng·h/mL
449 nM,73.7 µL/min/1e6 cells,0.04 nM,395 µM,2.8,11200,6.3 µL/min/1e6 cells,CC1CCN(c2nsnc2N2CCN(C[C@H]3COc4ccccc4O3)CC2)C1=O (stereo not given in full),–
282 nM,16.2 µL/min/1e6 cells,0.05 nM,822 µM,2.2,5380,8.2 µL/min/1e6 cells,O=C1CCCN1c1nsnc1N1CCN(C[C@H]2COc3ccccc3O2)CC1,Cmax [17]: 101 ng/g; Tmax [18]: 15 min; Papp B→A [3]: 44.3 ×10⁻⁶ cm/s; fCmax [11]: 26 nM; fCmax [12]: 52 nM; Cmax [19]: 113 ng/mL; Kp uu [20]: 0.45; fraction unbound [13]: 0.185; Tmax [21]: 15 min; efflux ratio [7]: 0.6; fraction unbound [14]: 0.104; AUC(0-t) [15]: 140 ng·h/mL; AUC(0-t) [16]: 189 ng·h/mL; Papp A→B [10]: 73.6 ×10⁻⁶ cm/s
449 nM,1.8 µL/min/1e6 cells,0.076 nM,–,–,5930,1.8 µL/min/1e6 cells,O=C1NCCN1c1nsnc1N1CCN(C[C@H]2COc3ccccc3O2)CC1,–
130 nM,–,0.03 nM,176 µM,3.3,4330,–,COCc1cccnc1N1CCN(C[C@H]2COc3ccccc3O2)CC1 [ORM-13070],–
459 nM,29.3 µL/min/1e6 cells,0.01 nM,–,–,45900,14.2 µL/min/1e6 cells,c1ccc2c(c1)OC[C@H](CN1CCN(c3nsnc3Nc3ccncn3)CC1)O2,–
44.9 nM,–,0.01 nM,–,–,4490,–,O=C1CCCN1c1cccnc1N1CCN(C[C@H]2COc3ccccc3O2)CC1,–
449 nM,1.8 µL/min/1e6 cells,0.06 nM,114 µM,–,7480,1.8 µL/min/1e6 cells,Cc1c(N2CCNC2=O)c(N2CCN(C[C@H]3COc4ccccc4O3)CC2)nn1C,Papp B→A [3]: 21.4 ×10⁻⁶ cm/s; efflux ratio [7]: 7.5; Papp A→B [10]: 2.9 ×10⁻⁶ cm/s
449 nM,128 µL/min/1e6 cells,0.01 nM,133 µM,3.1,44900,18.1 µL/min/1e6 cells,CC1(C)CCN(c2nsnc2N2CCN(C[C@H]3COc4ccccc4O3)CC2)C1=O,–
449 nM,30 µL/min/1e6 cells,0.09 nM,719 µM,2.5,4990,1.75 µL/min/1e6 cells,CN(C)C(=O)c1nsnc1N1CCN(C[C@H]2COc3ccccc3O2)CC1,–
